Consider one molecule from patent US11154067B2, “Membrane and method for preservation of produce” (Agricultural Research Council, priority 2015, dated 2021).

What all share (assay type): in vivo
What all share (settings): controlled atmosphere 28 days followed by 7 days at 20° C.

Assay [1] has as its system Penicillium expansum. The experiment in a line: Postharvest dip trials of apples against Penicillium expansum.
In assay [2] the test system is Neofabraea alba. The experiment in a line: Postharvest dip trials of apples against Neofabraea alba.
Assay [3] concerns Botrytis cinerea. The experiment in a line: Postharvest dip trials of apples against Botrytis cinerea.

Each structure is given as a SMILES string.

On to `CCO` [Ethanol], for which the “antimicrobial efficacy indicated as percentage value” in assay [1] ('Golden Delicious' apples) was determined as 18.07%; in assay [1] ('Granny Smith' apples), 18.75%; in assay [1] ('Pink Lady' apples), 0.16%; in assay [2] ('Golden Delicious' apples), 10.41%; in assay [2] ('Granny Smith' apples), 21.87%; in assay [2] ('Pink Lady' apples), 19.25%. The figures for the “antimicrobial efficacy indicated as percentage value” in assay [3] ('Golden Delicious' apples), in assay [3] ('Granny Smith' apples) and in assay [3] ('Pink Lady' apples) were 13.98%, 16.53% and 2.88%, respectively.
